Reference: US11517617B2, “Methods and compositions for preventing influenza infection” (THE UNIVERSITY OF MELBOURNE, priority 2017, dated 2022)
No end group written: not given here.

Assays:
[1] = test system: CD8+ T cells; parameters: species or system transgenic HLA-A24 mice; conditions: mouse, in vivo
[2] = test system: memory CD8^+ T cells within PBMCs; type: cell-based, human
[3] = test system: CD8+ T Lymphocytes; type: cell-based, human
[4] = test system: CD8^+ T cells; experiment: In vitro screening and validation in HLA-A*02:01-expressing human PBMCs, CD8^+ T cell lines, IFNγ/TNF ICS; type: cell-based; conditions: for CD8^+ T cell response hierarchy of individual peptides: HLA-A*0201^+ donors, dissection of pools into individual peptides
Source text: As a next step, the IBV-specific CD8^+ T cell responses towards the 67 LC/MS-identified IBV-peptides in HLA-A*02:01-expressing individuals were dissected. CD8^+ T cell lines specific for each of the 6 peptide pools were established, and then re-stimulated cells with the cognate pool in an IFNγ/TNF ICS assay (FIG. 2f).
To validate these responses independently of the peptide pools, CD8^+ T cell lines were established towards individual immunogenic peptides (FIG. 2i). […] Thus, these thorough in vivo and in vitro analyses identified 5 novel peptides recognized by CD8^+ T cells in complex with the HLA-A*02:01 molecule, with BHA543-551 being immunodominant amongst the peptides tested, in both mice and humans.
Peripheral blood mononuclear cells (PBMC) from healthy A2:01+ donors were cultured in the presence of antigens (10 μM peptide) for 10 days in the presence of IL-2 (10 U/ml). On day 10 PBMCs were stimulated with peptides (1 μM) for 5 hours in the presence of BFA. Cells were surface stained for CD3 and CD8 and intracellularly stained for IFNγ and TNF using the BD cytofix/cytoperm kit according to the manufacturer's instructions (BD Biosciences).
Any pools with positive ICS responses were then dissected to their individual peptides.

[5] = test system: CD8^+ T cells; parameters: species or system A24 mice; conditions: mouse
[6] = test system: tetramer^+ CD8^+ T cells; experiment: Tetramer staining of IAV- or IBV-specific CD8^+ T cell lines established in vitro from healthy adult PBMC; type: cell-based, human; conditions: for tetramer^+ of CD8^+ T cells, median: n=11
Source text: Conversely, the universal A2/PB1413 epitope within the IBV-specific T cell lines was immunodominant (0.3%; detected in 8/11 donors) over the IBV-specific A2/BHA543 (0.11%; detected in 10/11 donors) and A2/BNS1266 epitopes (0.01%) (FIG. 4c).

[7] = test system: CD8^+ T cells; parameters: species or system HHD-A2 mice; conditions: mouse, in vivo
[8] = test system: CD8^+ T cells; experiment: Recall responses in HHD-A2 mice primed with B/Malaysia and challenged with B/Phuket; type: in vivo; conditions: spleen d8 after B/Phuket challenge; not statistically significant
Source text: To further verify the immunogenicity of these epitopes in recall responses, HHD-A2 mice were primed i.n. with B/Malaysia, infected with the heterologous strain B/Phuket 6 weeks later and then assessed CD8^+ T cells against the main epitopes A2/BHA543-551 and A2/BNS1266-274 in the spleen on d8 after challenge.

[9] = molecular target: HLA-A*02:01 (Homo sapiens, UniProt P04439, D140Y/D185E/D98H/E176V/E277Q/G131W/G231S/I119V/I121R/I166T/I218V/L300P/L318F/N151K/N90K/P208A/P217A/Q86G/Q94H/R138H/R169H/T345S); conditions: reference 34; cited from earlier work
[10] = test system: CD8^+ T cells
[11] = test system: human lung CD8^+ T cells; experiment: Ex vivo tetramer detection in human lung samples from deceased organ donors; type: cell-based; conditions: n=3 lung donors
Source text: As human memory CD8^+ T cells also reside outside the circulation, a rare set of human lung samples from deceased organ donors (n=3) were used to assess the presence of universal A2/PB1413^+CD8^+ T cells at the site of infection. CD8^+ T cells specific for A2/M158 and A2/PB1413, but not A2/BHA543 were detected within human lung CD8^+ T cells (2/3 donors for either specificity, FIG. 3f). […] Although based on a limited number of donors, this analysis indicates the presence of universal A2/PB1413^+ tissue-resident memory CD8^+ T cell pools in the human lung.

[12] = test system: tetramer^+ CD8^+ T cells; type: cell-based, human
[13] = T cell lines towards individual peptides, n=6
[14] = IAV-specific CD8^+ T cell lines

Sequence: AAYEDLRVL (Influenza B virus) [NP392-400]
- immunogenicity (induction of IFNγ production in CD8+ T cells after peptide re-stimulation) [1]: immunogenic

Sequence: VSDGGPNLY (Influenza A virus) [PB1591-599]
- memory CD8^+ T cell responses (IFN-γ production after peptide re-stimulation) [2]: robust memory CD8^+ T cell responses

Sequence: NFAMELPSF (Influenza B virus) [PB1503-511]
- CD8+ T cell responses (IFNγ) after single peptide re-stimulation [3]: immunogenic response

Sequence: YLNPGNYSM (Influenza B virus) [M1132-140]
- CD8^+ T cell response hierarchy of individual peptides [4]: Subdominant responses
- donors with response [4, 13]: single donor

Sequence: TYHSYANNI (Influenza B virus) [NA213-221]
- immunogenicity (induction of IFNγ production in CD8+ T cells after peptide re-stimulation) [1]: immunogenic

Sequence: IYFSPIRVTF (Influenza B virus) [NP164-173]
- immunogenicity (induction of IFNγ production in CD8+ T cells after peptide re-stimulation) [1]: immunogenic

Sequence: SYLIRALTL (Influenza A virus) [PB1216-224]
- in vivo CD8^+ T cell responses [5]: targeted

Sequence: LYSDILLKF (Influenza B virus) [NA32-40]
- immunogenicity (induction of IFNγ production in CD8+ T cells after peptide re-stimulation) [1]: immunogenic

Sequence: SQFGQEHRL (Influenza B virus) [NS1266-274]
- ICS responses in healthy A2:01+ donors ([4]; 10 days culture with 10 μM peptide and IL-2, re-stimulation 1 μM): detected across multiple donors
- CD8^+ T cell response hierarchy of individual peptides [4]: Subdominant responses
- CD8^+ T cell response, median [4, 13]: 0.035 % of CD8^+ T cells
- donors with response [4, 13]: single donor
- tetramer^+ of CD8^+ T cells, median ([6]; IBV-specific T cell lines): 0.01%
- CD8+ T cell responses (IFNγ and TNF production) [7]: CD8+ T cell responses were targeted
- CD8^+ T cell response, mean [7]: 1.8 % of CD8^+ T cells
- CD8^+ T cell responses at the site of infection [7]: targeted
- number of secondary IFNγ^+TNF^+ CD8^+ T cells in the spleen versus primary infection [8]: ~27 fold

Sequence: GILGFVFVL [M158-66, GILGFVFVL, reference compound]
- Tm (temperature required to unfold 50% of the protein) of pHLA-A*02:01 complex [9]: 65 °C
- EC50 [10]: 8.1 nM
- donors with detected tetramer^+ cells [6, 14]: 11 donors
- tetramer^+ of CD8^+ T cells, median [6, 14]: 3.9%
- epitope-specific CD8^+ T cells detected within human lung CD8^+ T cells [11]: 2/3
- CD38^+/Ki-67^+ expression of tetramer-positive CD8^+ T cells [12]: increase
- increase in frequency of epitope-specific CD8^+ T cells in blood versus healthy donors [12]: 4.3 fold
- individuals with detected epitope-specific CD8^+ T cells [12]: 100%

Sequence: TYQWVLKNL (Influenza B virus) [PB2550-558]
- immunogenicity (induction of IFNγ production in CD8+ T cells after peptide re-stimulation) [1]: immunogenic

Sequence: SLNDDGLDNHTILL (Influenza B virus) [HA538-551]
- CD8^+ T cell response hierarchy of individual peptides [4]: Subdominant responses
- CD8+ T cell responses (IFNγ and TNF production) [7]: detected
